Experimental data published in patent US5462861A, “Method for improving enzyme activities with noble gases” (American Air Liquide, Chicago Research Center, priority 1993, dated 1995).

Assays:
Tyrosinase = experiment: High pressure experiments, tyrosinase; type: biochemical, Mushroom; conditions: for % inhibition of gases relative to 1 atmosphere of air: value before the slash (not pressurized)
Experimental: Shake the enzyme in each cylinder for several minutes and then remove a 5 ml sample for Control B and Control C. Remove cylinders to the dock, gassing with the appropriate gas; bring pressure slowly up to 30.6 atm. Let sit at the required pressure for 60 minutes. Slowly depressurize to 2 psi before bringing into the lab. Bring the cylinders back to the dock and repressurize to 100 atm with the appropriate gas. Let sit at the required pressure for 60 minutes. Slowly depressurize to 2 psi before bringing into the lab. […] Shake the enzyme in each cylinder for several minutes and then remove a 5 ml sample for Control B and Control C. Remove cylinders to the dock, gassing with the appropriate gas. Remove headspace/residual gas by pressurizing and depressurizing the gas cylinder several times. Bring pressure slowly up to 30.6 atm. Let sit at the required pressure for 60 minutes. Slowly depressurize to 40 psi before bringing into the lab. Enzyme injection: […] The cylinders were pressurized as described above. The cylinder pressure was released and the cylinders repressurized 10 times to remove O2 from the cylinders. Final Pressurization: […] Cylinder 3 was pressurized to 1 atm with Xe then pressurized to 30.6 atm with N2 to conserve Xe. Time Table: […] Due to the fact that on 4/25/91 the spectrophotometers were being used at 5° C. for a different experiment the decision was made to sample the cylinders at the end of the day when the spectrophotometer was available to be put at 25° C. Sampling took place 28 hours after pressurization. A spectro/gas run was immediately preformed on these samples. Apr. 25, 1991 Repressurization: Cylinders were repressurized at 6:00 pm on 4/25/91 to 100 atm. These cylinders will be sampled at 2:00 pm Apr. 26, 1991 (20 hrs after pressurization). Cuvettes were filled for the 2 atm experiments for both enzymes. Each cuvette was gassed 10×10 cc with the appropriate gas and refrigerated for 15 minutes prior to running. Serum vials were filled with 5 cc of the corresponding enzyme and gassed with 10×10 cc of the appropriate gas prior to running. The spectrophotometers were set up such that a continuous flow of each gas could be delivered to each spectro at all times. A 100 […] gauge was installed to read the cuvette pressure and 2 on/off valves were installed so that the reference cell could be pressurized during the second replicate. A ball valve was installed between the cylinder/house line and the gauge so that gas flow could be controlled directly at the spectrophotometers. A check valve was placed in each line to ensure that a back pressure would not cause contamination of the house lines or the gas cylinders. The cuvettes retained the 2 needles during the entire run. One of the needles was attached to the gas line while the second was used for enzyme introduction and then plugged. Due to the bulky nature of the assembly it was impossible to use the installed doors of the spectrophotometers therefore they were removed. A 4-layer thick black felt cover was prepared for each spectro to minimize the amount of light entering the system. While the cuvette was equilibrating to temperature in the spectrophotometer both needles remained in the cuvette with 10 cc syringes still attached. Prior to enzyme introduction one of the syringes was removed while the gas line was attached to the needle. A small flow of gas run through the line while this was done to ensure that there was no oxygen contamination. The needles remained above the liquid level. The second syringe was removed to allow constant flow through the cuvette. The enzyme was injected through the second needle using a 1 cc syringe. The needle was then plugged, the cuvette pressurized and the run begun. A nonpressurized gas run using all four gases was done for each enzyme. Each cuvette was gassed with 10×10 cc of the corresponding gas and refrigerated for 15 minutes. The 2 needles used for gassing the cuvettes were removed when the cuvettes were placed into the spectrophotometer. […]

Phosphoglucose isomerase = Phosphoglucose isomerase (Homo sapiens, UniProt P06744); experiment: Phosphoglucose isomerase activity under gas; type: biochemical; conditions: for effect: phosphoglucose isomerase; for effect, stressed: stressed = nonoptimal substrate concentration or temperature
Experimental: Solution preparation: Optimized w/v solutions are prepared by diluting the enzyme (units/ml) and the substrate (μg/ml) in appropriate buffer (optimized pH and molarity for enzymes). The solutions are used for gas experiments at once to avoid loss of activity. Various enzyme and substrate concentrations and inhibitors may be employed. Physical parameters are varied as required.
Preparation of samples: Cuvets are filled with 2 ml of substrate solution by means of a gas-tight syringe. Gas-tight serum vials are filled with enzyme and solvent. Sufficient gas is consecutively bubbled in the cuvets and serum vials, with a 1-hr wait between injections to maximize equilibration of gas. All syringes and dead spaces are purged before filling with the appropriate gas. The amount of gas used has been measured sufficient to saturate the solution required.
Spectrophotometric time-drive, reaction rate, and kinetic analyses: cuvets and serum vials are saturated with gas 40 minutes before the run. A gas-filled syringe is used to retrieve 0.5 ml of enzyme solution to avoid air contact. The 0.5 ml syringe injections of enzyme are made simultaneously to effect a common starting time to for the samples. 7 gases (air, O2, N2, Ne, Ar, Kr, Xe) are run at various temperatures each (from 0° to 60° ). Changes in the rate or final equilibrium of the reaction versus ambient air are recorded. Comparison is also made with added oxygen, and with deoxygenation. Some samples are also prepared under pressure.
In a complete experiment, an enzyme at optimal pH and buffering salt concentration is reacted with 5 substrate concentrations in solution with noble gas at 1 atm. […] Controls are also run after evacuation of solution by vacuum. The reaction is monitored colorimetrically in a scanning spectrophotometer in real time, and the signals are treated mathematically to obtain rate and yield differences. Sample numbers are constant and sufficient to ensure significance of results. All parameters are independently controlled and measured, and more complex experiments are occasionally carried out.

[1] = 30.6 atm (24 hr), Xe = Xe 1 atm/N2 to pressure
[2] = 100 atm (~24 hr), Xe = Xe 1 atm/N2 to pressure

| Structure (SMILES) | inhibition relative to 1 atmosphere after pressurization (Tyrosinase; 2 atm) | % inhibition of gases relative to 1 atmosphere of air (Tyrosinase; 2 atm experiment) | effect on phosphoglucose isomerase (Phosphoglucose isomerase; 25° C., FIG. 35) | effect (Phosphoglucose isomerase) | effect, stressed (Phosphoglucose isomerase) | inhibition relative to 1 atmosphere after pressurization (Tyrosinase; 3 atm) | % inhibition of gases relative to 1 atmosphere of air (Tyrosinase; 3 atm experiment) | effect on phosphoglucose isomerase (Phosphoglucose isomerase; 10° C., FIG. 34) | effect on tyrosinase (Tyrosinase; 30 atm. pressure, FIG. 39) | inhibition relative to 1 atmosphere after pressurization (Tyrosinase; [1]) | inhibition relative to 1 atmosphere after pressurization (Tyrosinase; [2]) | effect on tyrosinase (Tyrosinase; 100 atm. pressure, FIG. 40) | change in relative effect (Tyrosinase; effect of pressure) | inhibition relative to 1 atmosphere after pressurization (Tyrosinase; 30.6 atm (1 hr)) | inhibition relative to 1 atmosphere after pressurization (Tyrosinase; 100 atm (1 hr)) |
| --- | --- | --- | --- | --- | --- | --- | --- | --- | --- | --- | --- | --- | --- | --- | --- |
| [Ne] [Ne, neon] | -84.5% | -69.0% | enhancement | +107% | -45% | – | – | – | – | – | – | – | – | – | – |
| [Ar] [Ar, argon] | -90.4% | -76.9% | – | +232.5% | – | -72.1% | -55.8% | enhancement | – | – | – | – | – | – | – |
| [Xe] [Xe, xenon] | -86.2% | -76.0% | – | +186% | -61% | – | – | enhancement | inhibitory effect | -87.0% | -85.7% | inhibitory effect | 75% | – | – |
| N#N [N2, nitrogen, reference compound] | -88.5% | -71.2% | enhancement | – | – | -82.6% | -72.1% | – | inhibitory effect | -78.8% | -84.7% | inhibitory effect | – | -15.4% | -20.0% |
| [Kr] [Kr, krypton] | -93.1% | -84.5% | – | +206.4% | – | – | – | enhancement | – | – | – | – | – | – | – |
